Experimental data taken from PMC11589570, “Critical assessment of LC3/GABARAP ligands used for degrader development and ligandability of LC3/GABARAP binding pockets” (Nature Communications, 2024).
Values joined by “and” are separate entries in the source; they are usually repeats but may differ in a detail not shown here. Identical values can stand only once.

Columns and labels:
[1] = test system: RPE1 cells; test: Cell growth assay (IncuCyte confluence over 72 h); assay type: cell-based; details: for RPE1 cell growth: listed as AN1
Protocol: Cell growth assay: Cell confluence (phase) from RPE1 (hTERT RPE-1, ATCC CLR_4000) or U2OS (ATCC, HTB-96) cell lines were monitored over time with the IncuCyte S3 (Sartiorius, Germany) in 384-well plates in 50 ul DMEM media, supplemented with 10% Fetal Bovine Serum (FBS) 1% penicillin/Streptomycin and incubated 24 h before treatment. Experiment was performed as described in Cano-Franco et al.. 50 μl of media containing either 2× final concentration of indicated compounds in or control compounds (final conc.: 0.1% DMSO, 250 nM Torin1, 200 ng/mL Bafilomycin) were added and images were taken every two hours over 72 h. Cell confluence is represented as % of area covered by cells. Each data point represents the average ratio or confluence obtained from three individual wells of the plate.

[2] = target: GABARAPL1 (Homo sapiens, UniProt Q9H0R8); test: FP assay with Cy5-labelled p62 LIR tracer (protein titration and tracer displacement); assay type: binding; details: for normalized FP signal, p62 LIR tracer displacement: GABARAPL1; for compound titration GABARAPL1 (displacement curve, FP signal): two replicate columns per compound; for FP tracer displacement curve signal (compound titration): duplicate values
GABARAPL1, sequence (Q9H0R8 whole entry): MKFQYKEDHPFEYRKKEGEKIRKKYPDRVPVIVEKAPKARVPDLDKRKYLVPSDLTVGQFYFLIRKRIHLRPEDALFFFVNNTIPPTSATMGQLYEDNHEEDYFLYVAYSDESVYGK

[3] = log10 concentration [M] -5.69897, listed as AN1
[4] = log10 concentration [M] -6.22185, listed as AN1
[5] = log10 concentration [M] -6.69897, listed as AN1
[6] = log10 concentration [M] -7.30103, listed as AN1
[7] = log10 concentration [M] -7.79588, listed as AN1
[8] = log10 concentration [M] -8.08092, listed as AN1

## O=C1Nc2ccc(Br)cc2C1=Cc1cc(O)c(O)c(Br)c1 [compound 1]
[1]; 100 nM, 10 h
  RPE1 cell growth: 30 and 17 and 26
[1]; 100 nM, 12 h
  RPE1 cell growth: 33 and 18 and 27
[1]; 100 nM, 14 h
  RPE1 cell growth: 37 and 19 and 27
[1]; 100 nM, 16 h
  RPE1 cell growth: 37 and 22 and 30
[1]; 100 nM, 18 h
  RPE1 cell growth: 41 and 22 and 30
[1]; 100 nM, 20 h
  RPE1 cell growth: 42 and 22
[1]; 500 nM, 10 h
  RPE1 cell growth: 40 and 23 and 25
[1]; 500 nM, 12 h
  RPE1 cell growth: 43 and 24 and 26
[1]; 500 nM, 14 h
  RPE1 cell growth: 44 and 25 and 28
[1]; 500 nM, 16 h
  RPE1 cell growth: 47 and 29 and 30
[1]; 500 nM, 18 h
  RPE1 cell growth: 49 and 29 and 32
[1]; 1 uM, 10 h
  RPE1 cell growth: 23 and 42 and 25
[1]; 1 uM, 12 h
  RPE1 cell growth: 25 and 45 and 28
[1]; 1 uM, 14 h
  RPE1 cell growth: 26 and 48 and 29
[1]; 1 uM, 16 h
  RPE1 cell growth: 29 and 49 and 32
[1]; 1 uM, 18 h
  RPE1 cell growth: 30 and 50 and 34
[1]; 1 uM, 20 h
  RPE1 cell growth: 32
[1]; 3 uM, 10 h
  RPE1 cell growth: 43 and 32 and 29
[1]; 3 uM, 12 h
  RPE1 cell growth: 45 and 37 and 31
[1]; 3 uM, 14 h
  RPE1 cell growth: 48 and 37 and 32
[1]; 3 uM, 16 h
  RPE1 cell growth: 50 and 39 and 35
[1]; 3 uM, 18 h
  RPE1 cell growth: 53 and 40 and 36
[1]; 3 uM, 20 h
  RPE1 cell growth: 52 and 41 and 37
[1]; 5 uM, 10 h
  RPE1 cell growth: 47 and 35
[1]; 5 uM, 12 h
  RPE1 cell growth: 49 and 38
[1]; 5 uM, 14 h
  RPE1 cell growth: 53 and 38 and 42
[1]; 5 uM, 16 h
  RPE1 cell growth: 55 and 41 and 44
[1]; 5 uM, 18 h
  RPE1 cell growth: 57 and 42 and 46
[1]; 5 uM, 20 h
  RPE1 cell growth: 56 and 45 and 49
[1]; 10 uM, 10 h
  RPE1 cell growth: 47 and 35 and 32
[1]; 10 uM, 12 h
  RPE1 cell growth: 51 and 37 and 33
[1]; 10 uM, 14 h
  RPE1 cell growth: 53 and 39 and 36
[1]; 10 uM, 16 h
  RPE1 cell growth: 55 and 43 and 35
[1]; 10 uM, 18 h
  RPE1 cell growth: 56 and 38 and 37
[1]; 10 uM, 20 h
  RPE1 cell growth: 54 and 41 and 38
[1]; RPE1, 72 h
  effect on cell growth (confluence): high dosage effects
[2]; log10 concentration [M] -3.82391, listed as AN1
  normalized FP signal, p62 LIR tracer displacement: 89.2857 and 90
[2]; log10 concentration [M] -4.1549, listed as AN1
  normalized FP signal, p62 LIR tracer displacement: 93.2857 and 94.1429
[2]; log10 concentration [M] -4.60206, listed as AN1
  normalized FP signal, p62 LIR tracer displacement: 92.8571 and 97.1429
[2]; log10 concentration [M] -5, listed as AN1
  normalized FP signal, p62 LIR tracer displacement: 95.2857 and 96.7143
[2]; log10 concentration [M] -5.30103
  normalized FP signal, p62 LIR tracer displacement: 97.7143
[2]; [3]
  normalized FP signal, p62 LIR tracer displacement: 89.4286 and 95
  FP tracer displacement curve signal (compound titration): 89.4286 and 95
[2]; [4]
  normalized FP signal, p62 LIR tracer displacement: 93.8571 and 97.2857
  FP tracer displacement curve signal (compound titration): 93.8571 and 97.2857
[2]; [5]
  normalized FP signal, p62 LIR tracer displacement: 97.1429 and 99.8571
  FP tracer displacement curve signal (compound titration): 97.1429 and 99.8571
[2]; [6]
  normalized FP signal, p62 LIR tracer displacement: 96 and 96.1429
  FP tracer displacement curve signal (compound titration): 96 and 96.1429
[2]; [7]
  normalized FP signal, p62 LIR tracer displacement: 97.7143 and 93.4286
  FP tracer displacement curve signal (compound titration): 97.7143 and 93.4286
[2]; [8]
  normalized FP signal, p62 LIR tracer displacement: 99
  FP tracer displacement curve signal (compound titration): 99
[2]; log10 concentration [M] -3.82391
  compound titration GABARAPL1 (displacement curve, FP signal): 89.2857 and 90
[2]; log10 concentration [M] -4.1549
  compound titration GABARAPL1 (displacement curve, FP signal): 93.2857 and 94.1429
[2]; log10 concentration [M] -4.60206
  compound titration GABARAPL1 (displacement curve, FP signal): 92.8571 and 97.1429
[2]; log10 concentration [M] -5
  compound titration GABARAPL1 (displacement curve, FP signal): 95.2857 and 96.7143
